The subject of data set [1] is SH-SY5Y cells. In words: β-III-tubulin staining intensity in SH-SY5Y cells. The note with it: FIG. 1D. The format is cell-based, human. The method, then: In this experiment, the SH-SY5Y cells were differentiated as described supra. At the time of analysis, cells were fixed with paraformaldehyde, stained for β-III-tubulin (R&D Systems, MAB1195), and imaged on a Molecular Devices Nano imaging instrument. Image analysis was performed by assessing the fluorescent intensity of cells stained with β-III-tubulin. Background from secondary antibody alone was subtracted from all values. Values are shown with standard deviations as “β-III-Tubulin Staining Intensity” for the indicated conditions.

The next data set concerns HIF-1α. The settings on record: reported in US2016008437; cited from earlier work.
Data set [2] is described as follows: Iron saturation by ICP-AES. The format is physicochemical. The text has this: The skilled person will appreciate that transferrin iron saturation levels can be readily determined without undue burden by quantifying the total iron levels in a sample having a known transferrin concentration. The total iron levels in sample can be measured by any one of a number of methods know by those of skill in the art. Suitable examples include: • Colorimetric assays—Iron is quantitated by measuring the intensity of the violet complex formed in the reaction between ferrozine and Fe^2+ in acetate buffer at 562 nm. Thiourea or other chemicals can be added to complex contaminant metals such Cu^2+, which can also bind with ferrozine and yield falsely elevated iron values. See Ceriotti et al., Improved direct specific determination of serum iron and total iron-binding capacity Clin Chem. 1980, 26(2), 327-31, the contents of which are incorporated herein by reference. • Inductively Coupled Plasma Atomic Emission Spectroscopy (ICP-AES)—is an emission spectroscopy technique that quantifies the mass percentage of metals in a sample. ICP-AES is based on the excitation of metal atoms/ions in the sample using a plasma (an ionized gas consisting of positive ions and free electrons) and analyzing the emission wavelength of the electromagnetic radiation, which is typical of that particular metal. Even though the technique is a standard analytical technique within common general knowledge of the skilled person, further information on ICP-AES can be found in Manley et al., Simultaneous Cu-, Fe-, and Zn-specific detection of metalloproteins contained in rabbit plasma by size-exclusion chromatography-inductively coupled plasma atomic emission spectroscopy. J Biol Inorg Chem. 2009, 14, 61-74, the contents of which are incorporated herein by reference.
The preferred method of determining the iron content of a sample for the purposes of the therapeutic method of the present invention is ICP-AES. The iron saturation of transferrin is then calculated based on the transferrin protein concentration, total iron content of the sample, and the fact that wild type transferrin has two iron-binding sites. Wild type human transferrin (molecular weight 79,750) can bind two iron atoms such that a sample containing 1 g of transferrin would be 100% saturated by 1.4 mg of iron.
Protein purity was determined by SDS-PAGE. Iron saturation levels were determined using ICP-AES in accordance with the procedures outlined in Manley et al., J Biol Inorg Chem (2009) 14:61-74, the contents of which are incorporated herein by reference.

The subject of data set [3] is SH-SY5Y cells. In words: Cell number / proliferation of SH-SY5Y cells by imaging. Format: cell-based, human. The method, then: Undifferentiated SH-SY5Y cells were seeded into 96 well clear bottom plates in media containing 0.1% FBS. A serum-free base media was utilized as recommended by the supplier for SH-SY5Y cells (Sigma, Cat #94030304-1VL). Twenty-four hours after seeding cells, a 3× stock solution of ApoTf, final concentrations indicated on the x-axis, in serum free base media was added to the cells. ApoTf was obtained and purified from pooled human plasma and dosed at a final concentration of 0.2 mg/mL.
Cells were allowed to differentiate for 6 days. Neurite growth was assessed by imaging and image analysis. At the time of analysis, a 10× solution of Tubulin Tracker (Molecular Probes, T34075) and Hoechst 33342 (Molecular Probes #H3570) nuclear stain was prepared.
Briefly, Tubulin Tracker dissolved in DMSO was diluted 1:1 with Pluronic F-127 and further diluted into HBSS to generate a 10× solution. Hoechst 33342 was added to the HBSS-Tubulin Tracker solution at 10 μg/mL to generate a 10× nuclear stain. […]
After obtaining images, the MetaExpress Neurite Outgrowth analysis module (Molecular Devices) was used to identify cells, cell bodies, and quantify neurites. […] The Outgrowth Fold Change was determined by setting the untreated control cells to a value of 1 with all other treatments shown relative to untreated control.

The subject of data set [4] is C57BL/6J mice with transient MCAo. In words: Novel object recognition test (NORT) after transient MCAo. Format: in vivo, mouse. The note with it: FIG. 10C, at least two weeks, vs saline. The method, then: C57BL/6J mice (ca. 20 g) were anaesthetized under isoflurane and, after dissection, a 6.0 silicon-coated monofilament suture was inserted into the external carotid artery to occlude the middle cerebral artery (MCAo). The occlusion was carried out for 60 minutes under temperature control.
Only animals with a ‘neuroscore’ of 4 or greater were considered for further testing (n=8-10 animals/group). At six hours post-occlusion, mice were injected daily with 350 mg/kg of Apo-transferrin (i.p.) or an equal volume of saline for a total of seven days, as well as with 50 mg/kg Bromodeoxyuridine (BrdU; Sigma-Aldrich Chemical, St. Louis, Mo.), both articles delivered by intraperitoneal administration. Weight changes were monitored daily.
Mice were prepared as indicated in Example 9 above and were subjected to assessments at 3 days and 1, 2, 3, 4 weeks post-MCAo, as indicated (n=8-10 animals/group). Motor coordination (i.e. equilibrium behavior and locomotor ability as a function of cortico-striatal function) was assessed using a rotarod test. Learning and memory capacity were measured using the NORT (novel object recognition test; for example, Anglada-Huguet et al., 2014, Molecular Neurobiology, vol. 49, pages 784-795; Denninger et al., 2018, J. Vis. Exp., vol. 141, e58593).
The time that it takes an animal to fall (Latency to fall) from the rotarod is shown vs time after MCAo. The motor skills of the mice reflect those of the neuroscore in FIG. 10A, with an increased rate of improvement in motor/balance skills, as measured by the amount of time animals stayed on the rotarod apparatus. […] The Discrimination (%) is a description of an animal's memory, as measured by the percentage of time in which an animal investigates newly presented objects compared to the time they investigate previously presented objects. Animals with better cognition and memory spend more time with the novel object due to memories of the object previously presented to the animal; this is shown as increased % Discrimination.

In the case of “apo-transferrin: iron-free form of transferrin protein, obtained and purified from pooled human plasma”, in the data set on SH-SY5Y cells [1], the “β-III-Tubulin Staining Intensity” value is reported as “caused an increase in β-III-tubulin protein”. The HIF-1α production entry in the data set with HIF-1α is recorded as “can induce HIF-1α production”. In addition, the “Iron Saturation (%)” value in data set [2] was under 0.3%. The “cell numbers (cell proliferation)” value with SH-SY5Y cells [3] (FIG. 1B, up to 0.8 mg/mL) was “induces a concentration-dependent increase in cell numbers”. The “cell proliferation, visual comparison to untreated control” value in the data set on SH-SY5Y cells [3] (FIG. 1C, 0.1 mg/mL) is “profound effect on promoting cell proliferation”. In addition, the “learning recognition / Discrimination (%) in NORT” value in data set [4] is “higher cognition”; in data set [4] (listed as ApoTf), “increases learning recognition functions”; in data set [4] (listed as apoTf), “higher ‘percent Discrimination’”.

The record behind these values is patent US20230265167A1, “COMPOSITIONS HAVING NEUROREGENERATIVE APPLICATIONS” (GRIFOLS WORLDWIDE OPERATIONS LIMITED, priority 2020, published 2023).
